The nature of data set [1]: Prostate distribution of four flavonoids after oral aerial part of G. uralensis (HPLC-MS/MS). In kind it is in vivo, Sprague Dawley (SD) rats. The note with it: rats, 0.5-8 h after oral extract 1 g/kg on day 31, n = 6. The method, then:
(§1) The analysis was performed on the AB SCIEX QTRAP 5500 (USA) triple quadrupole mass spectrometer, which was performed in SRM and positive and negative ionization modes. LC separation is run on XSelect HSS T3 analytical column (2.1 × 100 mm, 2.5 μm, Waters), equipped with Exion LC AD system (AB Sciex) infinite binary pump. Acetonitrile was used as solvent A and 0.1% formic acid aqueous solution was used as solvent B and the flow rate was 0.1 mL/min. Using gradient elution, the initial condition is that 90% solvent B drops to 0% B within 17 min and maintains it for 2 min, returns to the initial […] at 19.1 min, and ends an analysis at 22 min. The temperature of the column oven is maintained at 35 °C. The sample is kept at 10 °C and the injection volume is 5 μL. The MS parameters are as follows: ESI ion source temperature is 500 °C; curtain gas: 30 psi; collision-activated dissociation (CAD) gas settings: medium, ion spray voltage: −4500 V, ion gas 1 and 2: 50 psi. The data acquisition software is AB SCIEX Analyst 1.7.1. The specific parameters are as Table 8.

A short description of data set [2]: Pharmacokinetics of four flavonoids in rat plasma after oral aerial part of G. uralensis extract (HPLC-MS/MS). Type of data set: in vivo, Sprague Dawley (SD) rats. The conditions noted are these: for time at which steady state was reached: 3 h after daily oral extract 1 g/kg; for AUC(0-inf) / AUC(0-t) / Cmax / Tmax / half-life / MRT last / MRT inf: Sprague Dawley; for MRT last: day 31, n = 6, read-out: MRT0–t; for MRT inf: day 31, n = 6, read-out: MRT0–∞. The method, then:
For clean-up, the plasma samples (50 μL) were vortex-mixed with 10 μL of IS and 250 μL of methanol. […] At last, 5 μL of the resulting supernatant was applied to HPLC–MS/MS analysis.
as §1

Data set [3] is described as follows: Stability test of analytes in rat prostate homogenate QC samples. The note with it: for Stability, Mean ± S.D., 24 h at room temperature, low QC / Stability, Mean ± S.D., freeze-thaw cycles, low QC: nominal puerarin 0.100, luteolin 0.200, kaempferol 2.000, pinocembrin 2.000, n = 3; for Stability, Mean ± S.D., 24 h at room temperature, medium QC / Stability, Mean ± S.D., freeze-thaw cycles, medium QC: nominal puerarin 1.000, luteolin 5.000, kaempferol 100.000, pinocembrin 50.000, n = 3; for Stability, Mean ± S.D., 24 h at room temperature, high QC / Stability, Mean ± S.D., freeze-thaw cycles, high QC: nominal puerarin 5.000, luteolin 10.000, kaempferol 200.000, pinocembrin 100.000, n = 3; for Stability, Mean ± S.D., freeze-thaw cycles, low QC / Stability, Mean ± S.D., freeze-thaw cycles, medium QC / Stability, Mean ± S.D., freeze-thaw cycles, high QC: three freeze-thaw cycles. In kind it is in vitro ADME. As to the method:
All of the solutions were stored at 4℃ until analysis. Stability investigation of the four components in the plasma and prostate homogenates was performed by analyzing replicates (n = 3) of the three levels of QC samples under three different conditions. Room temperature stability was assessed after the exposure of untreated QC samples at room temperature for 24 h. Freeze and thaw stability was evaluated after three freeze (−20 °C)–thaw (room temperature) cycles.

Data set [4] is described as follows: Qualitative detection of prototype flavones and metabolites in rat plasma, prostate, urine and feces by UPLC-Q-Exactive Orbitrap-MS after oral aerial part of G. uralensis. The conditions noted are these: rats, single oral 1 g/kg extract; for Distribution of protoflavones: Plasma: mixed plasma 0.25-48 h, + not defined.
Experimental: Forty-eight rats were randomly divided into four groups, namely plasma (n = 6), prostate (n = 30, there were five time points, with six individuals for each time point), excretion (n = 6) and blank (n = 6). The plasma, prostate, and excretion groups were gavaged with 1 g/kg of Glycyrrhiza uralensis sample, whereas the blank group was administered 0.5% CMC-Na. Biological samples were collected after the mice were dosed once.
The tube was placed at room temperature for 1 h; then, it was centrifuged at 4 °C (10,000 rpm, 10 min). Upper plasma of different time points was separated for 50 μL and mixed and shaken well. Mixed plasma was collected at 50 μL and the plasma samples (50 μL) were vortex-mixed with 250 μL of methanol. The solution was centrifuged at 10,000 rpm for 10 min to separate the protein from the organic phase, and then the upper supernatant was collected. Then, the supernatant was transferred and evaporated to dryness under a gentle stream of nitrogen at room temperature. The residue was reconstituted in 50 µL methanol, mixed for 1 min, and centrifuged at 10,000 rpm for 10 min. At last, 20 μL of the resulting supernatant was applied to UPLC–MS/MS analysis.
UPLC-Q-Exactive Orbitrap-MS analysis was performed on a Dionex Ultimate 3000 ultra-high performance liquid system (ThermoFisher) consisting of a binary pump, a DAD detector, a column chamber, an automatic sampler and an online degasser. The sample was separated on a Waters ACQUITY UPLC HSS T3 C18 column (2.1 mm × 100 mm, 1.8 μm), with a column temperature of 30 °C, automatic sampler temperature of 10 °C, and flow rate of 0.2 mL·min^−1. The mobile phases A and B were acetonitrile with 0.1% formic acid and aqueous solution with 0.1% formic acid, respectively. […] The injection volume of the sample was 5 μL.
The MS conditions were as follows: detection mode: positive and negative ion modes; scan range: 100–1200; resolution: 70,000; sheath gas flow rate: 40; aux gas flow rate: 15; spray voltage [kV]: 3.20; capillary temp: 320 °C; aux gas heater temp: 350 °C; AGC target: 3,000,000; maximum IT (ms): 100; sheath gas: 40/45; aux gas flow: 11/10; sweep gas: 0; S-lens RF level: 55; and aux gas heater temperature: 220 °C.
The subject of the next data set is primary liver cell model. Details: method as in Lu et al. [65]. The conditions noted are these: ref Lu et al. [65]; cited from earlier work.
Where [5] appears, read: oral extract 1 g/kg every day, day 31, n = 6.

What is called AUC(0-inf) is the area under the concentration-time curve extrapolated to infinity. As usually defined, the AUC(0-t) is exposure summed from dosing to a finite time, without extrapolation to infinity. Usually Cmax stands for the peak of the concentration-time curve. For orientation: Tmax means the time at which the peak concentration occurs. For orientation: half-life means the time in which the quantity being followed falls by half.

Each structure is given as a SMILES string. Entries after “also recorded” stand apart in the source; their conditions may differ.

In the case of `O=C1C[C@@H](c2ccccc2)Oc2cc(O)cc(O)c21` [Pinocembrin], in data set [1], the “concentration in prostate (ranking, in words)” value (from here on “concentration in prostate”) is “kaempferol > pinocembrin > luteolin > puerarin”. For the same molecule, the “time at which steady state was reached” value in data set [2] is recorded as 5 days. In data set [2] (setting [5]), the area under the curve AUC(0-inf) amounted to 23.8 ± 1.29 ng·h/mL, the area under the curve AUC(0-t) was 21.8 ± 0.73 ng·h/mL, the peak level (Cmax) was 1.18 ± 0.06 ng/mL and the time of peak concentration (Tmax) was found to be 1.5 ± 0.05 h. Further, the half-life in data set [2] (setting [5]) was 13.2 ± 0.72 h. In data set [2] (oral extract 1 g/kg every day), the MRT last came out at 19.1 ± 0.82 h and the MRT inf was determined as 23.3 ± 0.83 h. For the same molecule, in data set [3], the “Stability, Mean ± S.D., 24 h at room temperature, low QC” value (“Stability, Mean ± S.D., 24 h … low QC” for short) amounted to 1.923 ± 0.076 μg·mL^−1/μg·g^−1; the “Stability, Mean ± S.D., 24 h at room temperature, medium QC” value (“Stability, Mean ± S.D., 24 h … medium QC” below) was determined as 51.000 ± 3.000 μg·mL^−1/μg·g^−1; the “Stability, Mean ± S.D., 24 h at room temperature, high QC” value (from here on “Stability, Mean ± S.D., 24 h … high QC”) is listed as 102.000 ± 2.646 μg·mL^−1/μg·g^−1; the “Stability, Mean ± S.D., freeze-thaw cycles, low QC” value was found to be 1.867 ± 0.153 μg·mL^−1/μg·g^−1. In data set [3], the “Stability, Mean ± S.D., freeze-thaw cycles, medium QC” value worked out at 51.333 ± 1.528 μg·mL^−1/μg·g^−1 and the “Stability, Mean ± S.D., freeze-thaw cycles, high QC” value was determined as 102.333 ± 2.887 μg·mL^−1/μg·g^−1.
For the molecule `C[C@@H]1O[C@@H](OC[C@H]2O[C@@H](Oc3c(-c4ccc(O)c(O)c4)oc4cc(O)cc(O)c4c3=O)[C@H](O)[C@@H](O)[C@@H]2O)[C@H](O)[C@H](O)[C@H]1O` [Rutin], the “Distribution of protoflavones: Plasma” value in data set [4] is given as “detected”.
As for `O=c1c(O[C@@H]2O[C@H](CO)[C@@H](O)[C@H](O)[C@H]2O)c(-c2ccc(O)c(O)c2)oc2cc(O)cc(O)c12` [Isoquercitrin], the “Distribution of protoflavones: Plasma” value in data set [4] is given as “detected”.
As for `O=c1cc(-c2ccc(O)c(O)c2)oc2cc(O)cc(O)c12` [Luteolin], the “concentration in prostate” value in data set [1] is given as “kaempferol > pinocembrin > luteolin > puerarin”. Besides, in the data set with primary liver cell model, the “Phase II metabolites, share of the dosage” value was 54%. Further, in data set [2], the “time at which steady state was reached” value is 9 days. Besides, in data set [2] (setting [5]), the AUC(0-inf) amounted to 51.6 ± 1.98 ng·h/mL, the time of peak concentration (Tmax) was found to be 0.87 ± 0.05 h, the half-life was 31.1 ± 1.17 h and the “AUC0–t” value came to 35.01 ± 0.81 ng·h/mL. Besides, in data set [2] (oral extract 1 g/kg every day), the MRT last amounted to 20.7 ± 1.91 h and the MRT inf amounted to 44 ± 1.72 h. In data set [3], the “Stability, Mean ± S.D., 24 h … low QC” value was 0.194 ± 0.005 μg·mL^−1/μg·g^−1; the “Stability, Mean ± S.D., 24 h … medium QC” value is reported as 4.963 ± 0.118 μg·mL^−1/μg·g^−1; the “Stability, Mean ± S.D., 24 h … high QC” value is on record as 9.900 ± 0.458 μg·mL^−1/μg·g^−1; the “Stability, Mean ± S.D., freeze-thaw cycles, low QC” value is recorded as 0.213 ± 0.031 μg·mL^−1/μg·g^−1. Further, in data set [3], the “Stability, Mean ± S.D., freeze-thaw cycles, medium QC” value amounted to 4.833 ± 0.058 μg·mL^−1/μg·g^−1 and the “Stability, Mean ± S.D., freeze-thaw cycles, high QC” value stood at 10.433 ± 0.551 μg·mL^−1/μg·g^−1.
With `COc1ccc(-c2coc3cc(O[C@@H]4O[C@H](CO)[C@@H](O)[C@H](O)[C@H]4O)ccc3c2=O)cc1` [Ononin], in data set [4], the “Distribution of protoflavones: Plasma” value is on record as “detected”.
For `O=c1c(O[C@@H]2O[C@H](CO)[C@@H](O)[C@H](O)[C@H]2O)c(-c2ccc(O)cc2)oc2cc(O)cc(O)c12` [Astragalin], the “Distribution of protoflavones: Plasma” value in data set [4] is on record as “detected”.
Turning to `O=c1c(O)c(-c2ccc(O)cc2)oc2cc(O)cc(O)c12` [Kaempferol], in data set [1], the “concentration in prostate” value is recorded as “highest concentration; also recorded: kaempferol > pinocembrin > luteolin > puerarin; also recorded: particularly high”. Also, in data set [2] (setting [5]), the area under the curve AUC(0-inf) amounted to 23.8 ± 0.86 ng·h/mL, the area under the curve AUC(0-t) came to 18.8 ± 1.18 ng·h/mL, the highest concentration (Cmax) worked out at 1.27 ± 0.06 ng/mL and the Tmax was found to be 4 ± 0.17 h. In data set [2] (setting [5]), the half-life was 19 ± 1.46 h. Further, in data set [2] (oral extract 1 g/kg every day), the MRT last stood at 20.1 ± 0.84 h and the MRT inf is 31.8 ± 1.22 h. In data set [3], the “Stability, Mean ± S.D., 24 h … low QC” value is on record as 2.000 ± 0.265 μg·mL^−1/μg·g^−1; the “Stability, Mean ± S.D., 24 h … medium QC” value worked out at 99.133 ± 3.557 μg·mL^−1/μg·g^−1; the “Stability, Mean ± S.D., 24 h … high QC” value amounted to 201.667 ± 3.215 μg·mL^−1/μg·g^−1; the “Stability, Mean ± S.D., freeze-thaw cycles, low QC” value is on record as 1.833 ± 0.058 μg·mL^−1/μg·g^−1. Also, in data set [3], the “Stability, Mean ± S.D., freeze-thaw cycles, medium QC” value is reported as 96.667 ± 2.082 μg·mL^−1/μg·g^−1 and the “Stability, Mean ± S.D., freeze-thaw cycles, high QC” value is listed as 202.333 ± 2.082 μg·mL^−1/μg·g^−1.
For `O=c1c(-c2ccc(O)cc2)coc2c([C@@H]3O[C@H](CO)[C@@H](O)[C@H](O)[C@H]3O)c(O)ccc12` [Puerarin], in data set [4] (+ not defined (detected)), the “Distribution of four representative flavonoids and metabolites: Plasma” value is given as “detected”. In data set [4], the “Distribution of protoflavones: Plasma” value is “detected”. For the same molecule, the “concentration in prostate” value in data set [1] is on record as “kaempferol > pinocembrin > luteolin > puerarin”. In data set [2] (setting [5]), the area under the curve AUC(0-inf) is 242 ± 2.45 ng·h/mL, the exposure AUC(0-t) was found to be 238 ± 23.4 ng·h/mL, the peak level (Cmax) was 23.8 ± 1.05 ng/mL and the Tmax came to 0.5 ± 0.04 h. The molecule also showed a t1/2 in data set [2] (setting [5]) of 6.43 ± 0.20 h. In data set [2] (oral extract 1 g/kg every day), the MRT last was 14.4 ± 1.21 h and the MRT inf stood at 15.1 ± 1.71 h. Moreover, in data set [3], the “Stability, Mean ± S.D., 24 h … medium QC” value amounted to 1.097 ± 0.138 μg·mL^−1/μg·g^−1; the “Stability, Mean ± S.D., 24 h … high QC” value is 4.940 ± 0.056 μg·mL^−1/μg·g^−1; the “Stability, Mean ± S.D., freeze-thaw cycles, low QC” value was determined as 0.100 ± 0.005 μg·mL^−1/μg·g^−1; the “Stability, Mean ± S.D., freeze-thaw cycles, high QC” value was 5.057 ± 0.224 μg·mL^−1/μg·g^−1.
`O=c1cc(-c2ccc(O)cc2)oc2c([C@@H]3O[C@H](CO)[C@@H](O)[C@H](O)[C@H]3O)c(O)cc(O)c12` [Vitexin]: in data set [4], the “Distribution of protoflavones: Plasma” value is on record as “detected”.
For the molecule `O=c1c(O[C@@H]2O[C@H](CO)[C@H](O)[C@H](O)[C@H]2O)c(-c2ccc(O)c(O)c2)oc2cc(O)cc(O)c12` [Hyperoside], the “Distribution of protoflavones: Plasma” value in data set [4] was “detected”.

Values taken from article PMC9144537, “Pharmacokinetics, Prostate Distribution and Metabolic Characteristics of Four Representative Flavones after Oral Administration of the Aerial Part of Glycyrrhiza uralensis in Rats” (Molecules, 2022).
